Measured values reported in patent US10464926B2, “Heterobicyclic compounds and their use for the treatment of tuberculosis” (OTSUKA PHARMACEUTICAL CO., LTD., priority 2014, dated 2019).

| SMILES | melting point |
| --- | --- |
| O=C1CCc2c(OCC3(O)CCN(c4ccc5sccc5c4)CC3)ccc(Cl)c2N1 | 193.8 to 194.5 °C |
| O=C1CCc2c(OCC3(O)CCN(c4ccc5occc5c4)CC3)ccc(F)c2N1 | 215.7 to 216 °C |
| O=C1CCc2c(OCC3(O)CCN(c4ccc(OCc5ccc(C(F)(F)F)cc5)cc4F)CC3)ccc(F)c2N1 | 207.4 to 210.3 °C |
| NC1(COc2ccc(F)c3c2CCC(=O)N3)CCN(c2ncc(F)cc2F)CC1 | 160.9 to 163.1 °C |
| Cc1ccc(N2CCC(O)(COc3ccc(F)c4c3CCC(=O)N4)CC2)nc1C | 197.9 to 199.6 °C |
| O=C1CCc2c(OCC3(O)CCN(c4cc5c(cc4F)OC(F)(F)O5)CC3)cc(F)c(Cl)c2N1 | 249.4 to 250.5 °C (dec.) |
| O=C1CCc2c(OC[C@]3(O)CCN(c4ccc(Cl)cc4Cl)C[C@H]3O)ccc(Cl)c2N1 | 184.1 to 185.1 °C |
| O=C1CCc2c(OC[C@]3(O)CCN(c4ccccc4Cl)C[C@H]3O)ccc(F)c2N1 | 161.3 to 161.4 °C |
| O=C1CCc2c(OC[C@]3(O)CCN(c4ccc(F)cc4F)C[C@H]3O)ccc(F)c2N1 | 175.2 to 176.1 °C |
| O=C1CCc2c(OC[C@]3(O)CCN(c4ccccc4)C[C@H]3O)ccc(F)c2N1 | 202.8 to 203.5 °C |
| O=C1CCc2c(OC[C@]3(O)CCN(c4ccc(OC(F)F)cc4)C[C@H]3O)ccc(F)c2N1 | 163.1 to 164.6 °C |
| Cn1c(N2CC[C@@](O)(COc3ccc(F)c4c3CCC(=O)N4)[C@H](O)C2)nc2ccccc21 | 138 to 147 °C |
| O=C1CCc2c(OC[C@]3(O)CCN(c4nc5ccccc5[nH]4)C[C@H]3O)ccc(F)c2N1 | 279 to 281 °C |
| O=C1CCc2c(OC[C@]3(O)CCN(c4ccc(Cl)cc4F)C[C@@H]3O)ccc(F)c2N1 | 198.6 to 198.8 °C |
| O=c1ccc2c(OC[C@]3(O)CCN(c4ccc(Br)cc4F)C[C@H]3O)ccc(F)c2[nH]1 | 224.5 °C (dec.) |
| O=C1CCc2c(NCC3(O)CCN(c4ccc(Cl)cc4Cl)CC3)ccc(F)c2N1 | 226 to 227 °C |
| NOC1(COc2ccc(F)c3c2CCC(=O)N3)CCN(c2ncc(Cl)cc2Cl)CC1 | 147 to 149 °C |
| CC(=O)O[C@@H]1CN(c2c(F)cc(Cl)cc2F)CC[C@@]1(O)COc1ccc(F)c2c1CCC(=O)N2 | 163 to 165 °C |

| SMILES | melting point |
| --- | --- |
| CCOC(=O)O[C@@H]1CN(c2ccc(Cl)cc2F)CC[C@@]1(O)COc1ccc(F)c2c1CCC(=O)N2 | 171 to 172 °C |
| O=C1CCc2c(OCC3(O)CCN(c4ccccc4)CC3)ccc(F)c2N1 | 177 to 177.4 °C |
| O=C1CCc2c(OCC3(O)CCN(c4cccnc4)CC3)ccc(F)c2N1 | 178.2 to 178.8 °C |
| CCOc1ccc(N2CCC(O)(COc3ccc(F)c4c3CCC(=O)N4)CC2)cc1 | 198.8 to 199.1 °C |
| N#Cc1ccc(N2CCC(O)(COc3ccc(F)c4c3CCC(=O)N4)CC2)cc1 | 216 °C |
| O=C1CCc2c(OCC3(O)CCN(c4ccc(Oc5ccccc5)cc4)CC3)ccc(F)c2N1 | 186.9 to 187.2 °C |
| CC(C)c1ccccc1N1CCC(O)(COc2ccc(F)c3c2CCC(=O)N3)CC1 | 163 to 163.3 °C |
| O=C1CCc2c(OC[C@@]3(O)CCN(c4ncc(Cl)cc4Cl)C[C@@H]3O)ccc(F)c2N1 (relative stereo) | 202.6 to 204.8 °C |
| O=C1CCc2c(OC[C@@]3(O)CCN(c4c(F)cc(Cl)cc4F)C[C@@H]3O)cc(F)c(F)c2N1 (relative stereo) | 215 to 217 °C |
| O=C1CCc2c(OC[C@]3(O)CCN(c4cc5c(cc4F)OC(F)(F)O5)C[C@H]3O)ccc(F)c2N1 (relative stereo) | 197.4 to 197.5 °C |
| O=C1CCc2c(OC[C@H]3CCN(c4cc(F)c(Cl)cc4F)C[C@@H]3O)ccc(F)c2N1 (relative stereo) | 168.9 to 172.7 °C |
| CO[C@H]1CN(c2ncc(Cl)cc2Cl)CC[C@@]1(O)COc1ccc(F)c2c1CCC(=O)N2 (relative stereo) | 186 to 187 °C |
| CO[C@H]1CN(c2ncc(Cl)cc2Cl)CC[C@]1(O)COc1ccc(F)c2c1CCC(=O)N2 (relative stereo) | 162.8 to 164 °C |
| C[C@H]1CN(c2ncc(Cl)cc2Cl)CC[C@@]1(O)COc1ccc(F)c2c1CCC(=O)N2 (relative stereo) | 222 to 223 °C |
| O=C1CCc2c(OC[C@]3(O)CCN(c4ccc(Cl)cc4F)C[C@@H]3F)ccc(F)c2N1 (relative stereo) | 190 to 191 °C |
| O=C1CCc2c(OC[C@]3(O)CCN(c4ccc(F)cc4Cl)C[C@@H]3F)ccc(F)c2N1 (relative stereo) | 204 to 205 °C |
| O=C1CCc2c(OC[C@]3(O)CCN(c4ccc(F)cc4Cl)C[C@H]3F)ccc(F)c2N1 (relative stereo) | 218 to 220 °C |

The next lines start with the values.

| melting point | SMILES |
| --- | --- |
| 222.9 to 223 °C | O=C1CCc2c(OCC3(O)CCN(c4ccc(Cl)cc4F)CC3)ccc(Cl)c2N1 |
| 174 °C | COCCOc1ccc(N2CCC(O)(COc3ccc(F)c4c3CCC(=O)N4)CC2)c(F)c1 |
| 208 °C | O=C1CCc2c(OCC3(O)CCN(c4cc(OC(F)(F)F)c(Cl)cc4F)CC3)ccc(F)c2N1 |
| 195.7 to 196.4 °C | COc1cc(F)c(N2CCC(O)(COc3ccc(F)c4c3CCC(=O)N4)CC2)c(F)c1 |
| 231.6 to 232.9 °C | O=C1CCc2c(cccc2OCC2(O)CCN(c3ccc(Cl)cc3F)CC2)N1 |
| 149.7 to 149.9 °C | O=C1CCc2c(OCC3(O)CCN(c4ccc(OC(F)(F)F)cc4F)CC3)ccc(Cl)c2N1 |
| 190.3 to 190.4 °C | O=C1CCc2c(OCC3(O)CCN(c4cc(F)c(Cl)cc4F)CC3)ccc(Cl)c2N1 |
| 239.8 to 239.9 °C | CCOc1cc(N2CCC(O)(COc3ccc(F)c4c3CCC(=O)N4)CC2)c(F)cc1Cl |
| 208.6 to 208.8 °C | Cc1cc(N2CCC(O)(COc3ccc(F)c4c3CCC(=O)N4)CC2)c(F)cc1Cl |
| 190.8 to 191.1 °C | CCOc1cc(F)c(N2CCC(O)(COc3ccc(F)c4c3CCC(=O)N4)CC2)cc1OC |
| 207.9 to 208.8 °C | CCOc1cc(F)c(N2CCC(O)(COc3ccc(F)c4c3CCC(=O)N4)CC2)c(F)c1 |
| 186.5 to 186.7 °C | O=C1CCc2c(OCC3(O)CCN(c4ccc(OCCF)cc4F)CC3)ccc(F)c2N1 |
| 201.6 to 202 °C | O=C1CCc2c(OCC3(O)CCN(c4ccc(OC(F)F)cc4F)CC3)ccc(F)c2N1 |
| 175.6 to 176.1 °C | O=C1CCc2c(OCC3(O)CCN(c4c(F)cc(F)cc4F)CC3)ccc(Cl)c2N1 |
| 193 to 194.7 °C | O=C1CCc2c(OCC3(O)CCN(c4ncc(C(F)(F)F)cc4Cl)CC3)ccc(Cl)c2N1 |
| 174.4 to 175.8 °C | O=C1CCc2c(OCC3(O)CCN(c4ncc(Cl)cc4F)CC3)ccc(Cl)c2N1 |
| 201.7 to 201.9 °C | O=C1CCc2c(OCC3(O)CCN(c4ccc(F)cc4F)CC3)ccc(F)c2N1 |
| 200 to 200.3 °C | O=C1CCc2c(OCC3(O)CCN(c4ccc(F)cc4F)CC3)ccc(Cl)c2N1 |
| 173.3 to 173.5 °C | CC(C)Oc1cc(N2CCC(O)(COc3ccc(Cl)c4c3CCC(=O)N4)CC2)c(F)cc1Cl |
| 200.7 to 201.4 °C | CCCOc1cc(N2CCC(O)(COc3ccc(F)c4c3CCC(=O)N4)CC2)c(F)cc1Cl |
| 159.2 to 160 °C | O=C1CCc2c(OCC3(O)CCN(c4cc(OCCOc5ccc(F)cc5)c(Cl)cc4F)CC3)ccc(F)c2N1 |
| 225.3 to 225.7 °C | CC(C)c1cc(N2CCC(O)(COc3ccc(F)c4c3CCC(=O)N4)CC2)c(F)cc1Cl |
| 169 to 170.4 °C | CCOc1cnc(N2CCC(O)(COc3ccc(Cl)c4c3CCC(=O)N4)CC2)c(Cl)c1 |

| melting point | SMILES |
| --- | --- |
| 228.7 to 228.9 °C | COc1cc(N2CCC(O)(COc3ccc(Cl)c4c3CCC(=O)N4)CC2)c(F)cc1Cl |
| 160.7 to 160.9 °C | CSc1ccc(N2CCC(O)(COc3ccc(Cl)c4c3CCC(=O)N4)CC2)c(Cl)c1 |
| 207.4 to 207.6 °C | CSc1ccc(N2CCC(O)(COc3ccc(F)c4c3CCC(=O)N4)CC2)c(Cl)c1 |
| 148.6 to 148.7 °C | O=C1CCc2c(OCC3(O)CCN(c4ccc(OCC(F)(F)F)cc4F)CC3)ccc(Cl)c2N1 |
| 195.3 to 195.4 °C | O=C1CCc2c(OCC3(O)CCN(c4c(F)cc(Br)cc4F)CC3)ccc(Cl)c2N1 |
| 156.9 to 157 °C | CCCc1cc(N2CCC(O)(COc3ccc(Cl)c4c3CCC(=O)N4)CC2)c(F)cc1F |
| 178.8 to 178.9 °C | CCc1cc(N2CCC(O)(COc3ccc(Cl)c4c3CCC(=O)N4)CC2)c(F)cc1F |
| 212 to 213 °C | O=C1CCc2c(OCC3(O)CCN(c4c(F)cccc4Cl)CC3)ccc(F)c2N1 |
| 185.1 to 185.2 °C | O=C1CCc2c(OCC3(O)CCN(c4cc(F)c(Cl)cc4F)CC3)ccc(F)c2N1 |
| 128.1 °C | CCOc1cccc(N2CCC(O)(COc3ccc(F)c4c3CCC(=O)N4)CC2)c1 |
| 239.4 to 239.8 °C | O=C1CCc2c(OCC3(O)CCN(c4c(Cl)cc(Cl)cc4Cl)CC3)ccc(F)c2N1 |
| 225.8 to 225.9 °C | O=C1CCc2c(OCC3(O)CCN(c4c(Cl)cncc4Cl)CC3)ccc(F)c2N1 |
| 190.4 to 190.5 °C | O=C1CCc2c(OCC3(O)CCN(c4cc(OC(F)(F)F)ccc4Cl)CC3)ccc(F)c2N1 |
| 204.8 to 205.4 °C | O=C1CCc2c(OCC3(O)CCN(c4cc([N+](=O)[O-])ccc4Cl)CC3)ccc(F)c2N1 |
| 148 °C | CCOC(=O)c1cc(N2CCC(O)(COc3ccc(F)c4c3CCC(=O)N4)CC2)ccc1Cl |
| 188 to 189 °C | O=C1CCc2c(OCC3(O)CCN(c4ccc(Cl)cc4[N+](=O)[O-])CC3)ccc(F)c2N1 |
| 185.1 to 185.9 °C | CCCOc1ccc(N2CCC(O)(COc3ccc(F)c4c3CCC(=O)N4)CC2)c(F)c1 |
| 176.5 to 176.9 °C | CC(C)c1ccc(N2CCC(O)(COc3ccc(F)c4c3CCC(=O)N4)CC2)c(Cl)c1 |
| 251.6 to 251.9 °C | Cc1cc(Cl)cc(Cl)c1N1CCC(O)(COc2ccc(F)c3c2CCC(=O)N3)CC1 |
| 191.9 to 192.2 °C | CC(C)Oc1ccc(N2CCC(O)(COc3ccc(F)c4c3CCC(=O)N4)CC2)c(F)c1 |
| 238.8 to 239.1 °C | O=C1CCc2c(OCC3(O)CCN(c4c(F)cc(Cl)cc4Cl)CC3)ccc(F)c2N1 |
| 181.8 to 181.9 °C | O=C1CCc2c(OCC3(O)CCN(c4ccc(OC(F)(F)F)cc4Cl)CC3)ccc(F)c2N1 |
| 201.3 to 201.9 °C | COc1ccc(N2CCC(O)(COc3ccc(F)c4c3CCC(=O)N4)CC2)c(F)c1 |
